Measured values taken from ChEMBL document CHEMBL1136268, “Retinoic acid receptor ligands based on the 6-cyclopropyl-2,4-hexadienoic acid” (Bioorg Med Chem Lett, 2003).
Substitutions are numbered along the chain they refer to.

Legend:
[1] = molecular target: T1, Retinoic acid receptor RXR-gamma (Homo sapiens, UniProt P48443); assay: Inhibition of [3H]-9-cis-RA binding to human Retinoid X receptor RXR gamma
T1 sequence (P48443 whole entry): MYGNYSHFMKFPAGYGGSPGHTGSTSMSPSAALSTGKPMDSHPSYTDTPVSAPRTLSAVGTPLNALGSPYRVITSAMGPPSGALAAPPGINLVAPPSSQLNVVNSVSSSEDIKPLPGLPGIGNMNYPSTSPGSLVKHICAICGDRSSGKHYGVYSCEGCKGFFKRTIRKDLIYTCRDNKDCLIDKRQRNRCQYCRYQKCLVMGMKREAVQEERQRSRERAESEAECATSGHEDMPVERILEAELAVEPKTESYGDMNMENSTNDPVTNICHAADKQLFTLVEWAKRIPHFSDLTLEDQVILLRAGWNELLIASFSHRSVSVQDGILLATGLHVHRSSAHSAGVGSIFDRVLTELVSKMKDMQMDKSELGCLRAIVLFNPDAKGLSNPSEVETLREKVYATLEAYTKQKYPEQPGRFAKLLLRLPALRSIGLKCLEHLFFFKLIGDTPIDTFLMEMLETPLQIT

[2] = molecular target: T2, Retinoic acid receptor alpha (Homo sapiens, UniProt P10276); assay: Transcriptional activation in CV-1 cells expressing human Retinoic acid receptor RAR alpha; Not active; assay type: cell-based
T2 sequence (P10276 whole entry): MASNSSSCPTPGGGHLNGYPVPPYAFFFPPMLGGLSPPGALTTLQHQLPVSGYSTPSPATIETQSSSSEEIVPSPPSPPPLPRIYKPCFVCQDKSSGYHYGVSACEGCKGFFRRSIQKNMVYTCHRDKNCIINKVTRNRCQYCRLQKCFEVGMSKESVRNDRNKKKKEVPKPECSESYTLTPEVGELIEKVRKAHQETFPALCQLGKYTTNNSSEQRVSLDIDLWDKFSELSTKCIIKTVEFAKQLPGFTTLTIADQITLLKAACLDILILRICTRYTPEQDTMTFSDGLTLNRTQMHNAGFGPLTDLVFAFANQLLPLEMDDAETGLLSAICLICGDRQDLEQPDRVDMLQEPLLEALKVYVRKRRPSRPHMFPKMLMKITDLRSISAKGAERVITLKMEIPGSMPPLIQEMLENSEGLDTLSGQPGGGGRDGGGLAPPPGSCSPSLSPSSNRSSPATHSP

[3] = molecular target: T2, Retinoic acid receptor alpha; assay: Inhibition of [3H]ATRA binding to human Retinoic acid receptor RAR alpha
[4] = molecular target: T3, Retinoic acid receptor gamma (Homo sapiens, UniProt P13631); assay: Inhibition of [3H]ATRA binding to human Retinoic acid receptor RAR gamma
T3 sequence (P13631 whole entry): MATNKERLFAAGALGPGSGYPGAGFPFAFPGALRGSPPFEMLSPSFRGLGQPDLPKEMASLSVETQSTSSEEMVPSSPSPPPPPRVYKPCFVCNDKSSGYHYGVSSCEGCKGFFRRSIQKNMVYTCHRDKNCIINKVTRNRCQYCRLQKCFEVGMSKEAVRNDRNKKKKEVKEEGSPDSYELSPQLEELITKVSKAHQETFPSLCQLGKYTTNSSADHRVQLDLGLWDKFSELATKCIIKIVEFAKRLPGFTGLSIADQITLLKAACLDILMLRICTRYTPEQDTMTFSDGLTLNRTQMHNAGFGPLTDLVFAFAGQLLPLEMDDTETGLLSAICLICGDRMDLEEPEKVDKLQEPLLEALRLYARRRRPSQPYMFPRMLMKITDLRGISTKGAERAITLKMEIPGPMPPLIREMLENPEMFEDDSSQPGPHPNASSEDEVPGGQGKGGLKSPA

[5] = molecular target: T4, Retinoic acid receptor beta (Homo sapiens, UniProt P10826); assay: Inhibition of [3H]-ATRA binding to human Retinoic acid receptor RAR beta
T4 sequence (P10826 whole entry): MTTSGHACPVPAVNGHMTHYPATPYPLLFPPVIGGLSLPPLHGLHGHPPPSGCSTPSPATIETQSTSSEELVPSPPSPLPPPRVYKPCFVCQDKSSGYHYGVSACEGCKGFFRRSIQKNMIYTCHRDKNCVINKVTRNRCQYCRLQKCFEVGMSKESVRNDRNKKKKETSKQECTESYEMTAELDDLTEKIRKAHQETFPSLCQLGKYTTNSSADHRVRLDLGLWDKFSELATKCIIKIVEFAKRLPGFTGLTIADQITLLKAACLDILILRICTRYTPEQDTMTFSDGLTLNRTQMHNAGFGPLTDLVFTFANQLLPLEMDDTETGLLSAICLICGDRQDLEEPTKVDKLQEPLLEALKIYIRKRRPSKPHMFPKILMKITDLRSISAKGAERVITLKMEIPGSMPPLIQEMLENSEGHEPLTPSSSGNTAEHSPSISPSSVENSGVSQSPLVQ

[6] = molecular target: T4, Retinoic acid receptor beta; assay: Transcriptional activation in CV-1 cells expressing human Retinoic acid receptor RAR beta; Not active; assay type: cell-based
[7] = molecular target: T3, Retinoic acid receptor gamma; assay: Transcriptional activation in CV-1 cells expressing human Retinoic acid receptor RAR gamma; Not active; assay type: cell-based
[8] = molecular target: T5, Retinoic acid receptor RXR-alpha (Homo sapiens, UniProt P19793); assay: Inhibition of [3H]9-cis-RA binding to human Retinoid X receptor RXR alpha
T5 sequence (P19793 whole entry): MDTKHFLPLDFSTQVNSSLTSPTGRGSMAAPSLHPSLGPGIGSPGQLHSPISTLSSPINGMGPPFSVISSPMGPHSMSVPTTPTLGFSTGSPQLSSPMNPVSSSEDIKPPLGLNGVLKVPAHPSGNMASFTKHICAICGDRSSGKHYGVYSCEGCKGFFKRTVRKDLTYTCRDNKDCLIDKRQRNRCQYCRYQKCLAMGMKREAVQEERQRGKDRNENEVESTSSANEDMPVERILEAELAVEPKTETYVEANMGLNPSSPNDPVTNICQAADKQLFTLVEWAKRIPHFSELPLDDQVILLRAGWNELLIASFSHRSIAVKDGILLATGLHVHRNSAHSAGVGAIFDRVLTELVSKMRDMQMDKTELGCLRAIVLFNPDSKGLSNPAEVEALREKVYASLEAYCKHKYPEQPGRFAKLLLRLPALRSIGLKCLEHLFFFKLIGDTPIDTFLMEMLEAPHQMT

[9] = molecular target: T6, Retinoic acid receptor RXR-beta (Mus musculus, UniProt P28704); assay: Inhibition of [3H]9-cis-RA binding to mouse Retinoid X receptor RXR beta
T6 sequence (P28704 whole entry): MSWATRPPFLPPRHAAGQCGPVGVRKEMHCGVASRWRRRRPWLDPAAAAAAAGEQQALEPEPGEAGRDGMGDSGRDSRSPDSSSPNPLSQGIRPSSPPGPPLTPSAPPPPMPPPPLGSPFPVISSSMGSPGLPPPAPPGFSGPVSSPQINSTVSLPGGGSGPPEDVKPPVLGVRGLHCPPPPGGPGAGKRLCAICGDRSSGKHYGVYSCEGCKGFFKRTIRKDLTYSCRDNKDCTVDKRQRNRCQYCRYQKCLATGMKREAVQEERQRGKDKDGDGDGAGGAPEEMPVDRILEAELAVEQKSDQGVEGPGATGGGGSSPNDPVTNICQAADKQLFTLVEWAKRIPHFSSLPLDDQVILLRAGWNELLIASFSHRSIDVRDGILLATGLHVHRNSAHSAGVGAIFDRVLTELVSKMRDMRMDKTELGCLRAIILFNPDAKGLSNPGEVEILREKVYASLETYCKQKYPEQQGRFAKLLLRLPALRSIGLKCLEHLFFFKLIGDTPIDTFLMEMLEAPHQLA

[10] = molecular target: T6, Retinoic acid receptor RXR-beta; assay: Transcriptional activation in CV-1 cells expressing mouse Retinoid X receptor RXR beta; assay type: cell-based
[11] = molecular target: T5, Retinoic acid receptor RXR-alpha; assay: Transcriptional activation in CV-1 cells expressing human Retinoid X receptor RXR-alpha; assay type: cell-based
[12] = molecular target: T7, Retinoic acid receptor RXR-gamma (Mus musculus, UniProt P28705); assay: Transcriptional activation in CV-1 cells expressing mouse Retinoid X receptor RXR gamma; assay type: cell-based
T7 sequence (P28705 whole entry): T1 sequence (P48443 whole entry) with A13T, Y15F, A31V, S34P, T228S, G230S, M258V, T450S

[13] = molecular target: T4, Retinoic acid receptor beta; assay: Transcriptional activation in CV-1 cells expressing human Retinoic acid receptor RAR beta; assay type: cell-based
[14] = molecular target: T2, Retinoic acid receptor alpha; assay: Transcriptional activation in CV-1 cells expressing human Retinoic acid receptor RAR alpha; assay type: cell-based
[15] = molecular target: T3, Retinoic acid receptor gamma; assay: Transcriptional activation in CV-1 cells expressing human Retinoic acid receptor RAR gamma; assay type: cell-based

| Kd [1] [nM] | EC50 [2] | Kd [3] [nM] | Kd [4] [nM] | Kd [5] [nM] | EC50 [6] | EC50 [7] | Kd [8] [nM] | Kd [9] [nM] | EC50 [10] [nM] | EC50 [11] [nM] | EC50 [12] [nM] | EC50 [13] [nM] | EC50 [14] [nM] | EC50 [15] [nM] | SMILES |
| --- | --- | --- | --- | --- | --- | --- | --- | --- | --- | --- | --- | --- | --- | --- | --- |
| 22 | Not Active | > 1000 | > 1000 | > 1000 | Not Active | Not Active |  |  |  |  |  |  |  |  | CC(/C=C/CC1(c2cc(C(C)(C)C)cc3c2CCC3(C)C)CC1)=C\C(=O)O |
|  |  | > 1000 | > 1000 | > 1000 |  |  | 3 | 8 | 19 | 30 | 23 | 139 | 733 | 391 | CC(/C=C/CC1(c2cc(C(C)(C)C)cc(C(C)(C)C)c2)CC1)=C\C(=O)O |

Continued, molecule first:

| SMILES | Kd [1] [nM] | EC50 [2] | Kd [3] [nM] | Kd [4] [nM] | Kd [5] [nM] | EC50 [6] | EC50 [7] | Kd [8] [nM] | Kd [9] [nM] | EC50 [10] [nM] | EC50 [11] [nM] | EC50 [12] [nM] | EC50 [13] [nM] | EC50 [14] [nM] | EC50 [15] [nM] |
| --- | --- | --- | --- | --- | --- | --- | --- | --- | --- | --- | --- | --- | --- | --- | --- |
| CC(/C=C/CC1(c2cc3c(cc2C)C(C)(C)CCC3(C)C)CC1)=C\C(=O)O | 153 | Not Active | > 1000 | > 1000 |  | Not Active | Not Active | 16 | 18 | 9 | 31 | 36 |  |  |  |
| CC(/C=C/CC1(c2ccc3c(c2)C(C)(C)CCC3(C)C)CC1)=C\C(=O)O | 8 |  |  |  |  |  |  |  |  |  |  |  |  |  |  |
| CC(/C=C/CC1(c2ccc3c(c2)C(C)(C)CCC3(C)C)CCCC1)=C\C(=O)O | 6 | Not Active | > 1000 | > 1000 | > 1000 | Not Active | Not Active |  | 7 | 19 |  | 24 |  |  |  |
